These results are taken from article PMC6199744, “Development of Chemical Proteomics for the Folateome and Analysis of the Kinetoplastid Folateome” (ACS Infectious Diseases, 2018).

Where two headings read alike, the source gives them in different places.

Common to all, as to type: binding
Experiment [1] deals with T1, HeLa cell extract proteins (Homo sapiens, UniProt A5YKK6).
T1 construct: endogenous in cells; host or cells: HeLa cell extract

Experiment [2] has as its target T2, HeLa cell extract proteins (Homo sapiens, UniProt O75608).
T2 construct: endogenous in cells; host or cells: HeLa cell extract

In experiment [3] the target is T3, HeLa cell extract proteins (Homo sapiens, UniProt P14618).
T3 construct: endogenous in cells; host or cells: HeLa cell extract

Experiment [4] has as its target T4, HeLa cell extract proteins (Homo sapiens, UniProt P30876).
T4 construct: endogenous in cells; host or cells: HeLa cell extract

Experiment [5] has as its target T5, HeLa cell extract proteins (Homo sapiens, UniProt P48047).
T5 construct: endogenous in cells; host or cells: HeLa cell extract
T5 sequence (P48047 24-213): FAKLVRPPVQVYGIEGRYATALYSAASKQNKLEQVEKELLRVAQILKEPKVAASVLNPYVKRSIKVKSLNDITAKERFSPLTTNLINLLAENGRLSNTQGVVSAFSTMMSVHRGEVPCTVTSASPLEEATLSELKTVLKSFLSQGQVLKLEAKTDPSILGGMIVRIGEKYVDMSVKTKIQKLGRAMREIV

In experiment [6] the target is T6, HeLa cell extract proteins (Homo sapiens, UniProt Q2TB90).
T6 construct: endogenous in cells; host or cells: HeLa cell extract
T6 sequence (Q2TB90 1-917): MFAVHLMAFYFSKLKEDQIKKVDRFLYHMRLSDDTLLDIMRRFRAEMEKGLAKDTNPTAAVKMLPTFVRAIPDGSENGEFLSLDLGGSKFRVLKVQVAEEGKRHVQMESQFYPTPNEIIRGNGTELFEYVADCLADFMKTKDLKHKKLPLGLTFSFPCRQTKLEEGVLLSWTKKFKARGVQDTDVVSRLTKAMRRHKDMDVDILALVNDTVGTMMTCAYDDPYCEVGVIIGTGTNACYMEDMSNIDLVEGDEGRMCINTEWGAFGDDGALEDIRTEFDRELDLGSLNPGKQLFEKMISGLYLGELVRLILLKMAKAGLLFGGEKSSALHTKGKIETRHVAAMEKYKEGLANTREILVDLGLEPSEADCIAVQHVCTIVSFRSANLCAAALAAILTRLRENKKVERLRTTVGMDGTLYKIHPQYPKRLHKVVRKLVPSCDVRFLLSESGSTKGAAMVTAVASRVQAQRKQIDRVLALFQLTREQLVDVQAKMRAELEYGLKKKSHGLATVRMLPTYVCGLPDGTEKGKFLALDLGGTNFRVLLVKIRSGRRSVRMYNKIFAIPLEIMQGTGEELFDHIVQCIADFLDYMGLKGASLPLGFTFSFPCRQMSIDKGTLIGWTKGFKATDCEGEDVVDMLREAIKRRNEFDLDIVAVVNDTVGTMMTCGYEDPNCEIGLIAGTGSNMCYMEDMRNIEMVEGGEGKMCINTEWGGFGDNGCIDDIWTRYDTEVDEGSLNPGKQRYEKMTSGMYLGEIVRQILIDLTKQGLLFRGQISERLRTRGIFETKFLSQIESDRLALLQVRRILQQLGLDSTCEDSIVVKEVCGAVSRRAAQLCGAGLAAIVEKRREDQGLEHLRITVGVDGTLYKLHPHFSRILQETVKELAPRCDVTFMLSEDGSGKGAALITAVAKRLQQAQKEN

For experiment [7], the target named is T7, HeLa cell extract proteins (Homo sapiens, UniProt Q8TEX9).
T7 construct: endogenous in cells; host or cells: HeLa cell extract
T7 sequence (Q8TEX9 1-1081): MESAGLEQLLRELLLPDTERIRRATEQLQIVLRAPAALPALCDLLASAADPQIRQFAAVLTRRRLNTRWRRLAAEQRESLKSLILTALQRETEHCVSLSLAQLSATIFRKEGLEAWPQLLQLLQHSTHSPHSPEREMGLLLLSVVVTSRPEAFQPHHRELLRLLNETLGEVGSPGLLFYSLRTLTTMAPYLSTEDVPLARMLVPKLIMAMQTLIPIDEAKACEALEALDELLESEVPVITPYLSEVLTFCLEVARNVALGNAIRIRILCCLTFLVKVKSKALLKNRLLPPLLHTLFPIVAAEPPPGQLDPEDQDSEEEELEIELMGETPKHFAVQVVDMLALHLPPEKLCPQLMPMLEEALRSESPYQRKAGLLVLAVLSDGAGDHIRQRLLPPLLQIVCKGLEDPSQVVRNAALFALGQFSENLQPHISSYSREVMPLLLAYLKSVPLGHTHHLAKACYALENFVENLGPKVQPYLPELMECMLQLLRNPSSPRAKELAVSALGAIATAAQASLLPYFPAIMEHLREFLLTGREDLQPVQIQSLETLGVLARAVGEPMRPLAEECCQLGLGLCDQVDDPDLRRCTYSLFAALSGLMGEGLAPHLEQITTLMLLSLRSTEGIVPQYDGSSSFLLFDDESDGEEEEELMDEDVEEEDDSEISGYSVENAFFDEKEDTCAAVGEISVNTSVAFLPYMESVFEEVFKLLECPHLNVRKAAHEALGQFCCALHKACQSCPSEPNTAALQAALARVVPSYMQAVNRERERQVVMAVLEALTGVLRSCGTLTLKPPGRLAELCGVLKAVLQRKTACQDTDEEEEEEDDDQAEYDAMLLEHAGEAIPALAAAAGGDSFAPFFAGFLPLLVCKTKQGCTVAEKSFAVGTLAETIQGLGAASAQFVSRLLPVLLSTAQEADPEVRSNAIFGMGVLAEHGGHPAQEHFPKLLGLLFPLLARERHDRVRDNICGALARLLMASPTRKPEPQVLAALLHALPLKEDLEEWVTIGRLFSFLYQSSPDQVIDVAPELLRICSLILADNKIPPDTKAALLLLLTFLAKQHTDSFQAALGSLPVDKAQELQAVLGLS

In experiment [8] the target is T8, HeLa cell extract proteins (Homo sapiens, UniProt Q96DE0).
T8 construct: endogenous in cells; host or cells: HeLa cell extract

[9] abbreviates: HeLa, protein PKM2 (CDNA FLJ56065, HIGHLY SIMILAR TO PYRUVATE KINASE ISOZYME M1.).

T2 sequence (O75608 whole entry): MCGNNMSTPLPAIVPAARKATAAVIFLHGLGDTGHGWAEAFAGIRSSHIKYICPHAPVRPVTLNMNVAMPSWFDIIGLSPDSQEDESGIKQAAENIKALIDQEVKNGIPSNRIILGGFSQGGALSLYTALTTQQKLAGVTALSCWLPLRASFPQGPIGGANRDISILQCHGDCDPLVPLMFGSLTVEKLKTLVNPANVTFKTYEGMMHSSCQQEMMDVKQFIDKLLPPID
T1 sequence (A5YKK6 whole entry): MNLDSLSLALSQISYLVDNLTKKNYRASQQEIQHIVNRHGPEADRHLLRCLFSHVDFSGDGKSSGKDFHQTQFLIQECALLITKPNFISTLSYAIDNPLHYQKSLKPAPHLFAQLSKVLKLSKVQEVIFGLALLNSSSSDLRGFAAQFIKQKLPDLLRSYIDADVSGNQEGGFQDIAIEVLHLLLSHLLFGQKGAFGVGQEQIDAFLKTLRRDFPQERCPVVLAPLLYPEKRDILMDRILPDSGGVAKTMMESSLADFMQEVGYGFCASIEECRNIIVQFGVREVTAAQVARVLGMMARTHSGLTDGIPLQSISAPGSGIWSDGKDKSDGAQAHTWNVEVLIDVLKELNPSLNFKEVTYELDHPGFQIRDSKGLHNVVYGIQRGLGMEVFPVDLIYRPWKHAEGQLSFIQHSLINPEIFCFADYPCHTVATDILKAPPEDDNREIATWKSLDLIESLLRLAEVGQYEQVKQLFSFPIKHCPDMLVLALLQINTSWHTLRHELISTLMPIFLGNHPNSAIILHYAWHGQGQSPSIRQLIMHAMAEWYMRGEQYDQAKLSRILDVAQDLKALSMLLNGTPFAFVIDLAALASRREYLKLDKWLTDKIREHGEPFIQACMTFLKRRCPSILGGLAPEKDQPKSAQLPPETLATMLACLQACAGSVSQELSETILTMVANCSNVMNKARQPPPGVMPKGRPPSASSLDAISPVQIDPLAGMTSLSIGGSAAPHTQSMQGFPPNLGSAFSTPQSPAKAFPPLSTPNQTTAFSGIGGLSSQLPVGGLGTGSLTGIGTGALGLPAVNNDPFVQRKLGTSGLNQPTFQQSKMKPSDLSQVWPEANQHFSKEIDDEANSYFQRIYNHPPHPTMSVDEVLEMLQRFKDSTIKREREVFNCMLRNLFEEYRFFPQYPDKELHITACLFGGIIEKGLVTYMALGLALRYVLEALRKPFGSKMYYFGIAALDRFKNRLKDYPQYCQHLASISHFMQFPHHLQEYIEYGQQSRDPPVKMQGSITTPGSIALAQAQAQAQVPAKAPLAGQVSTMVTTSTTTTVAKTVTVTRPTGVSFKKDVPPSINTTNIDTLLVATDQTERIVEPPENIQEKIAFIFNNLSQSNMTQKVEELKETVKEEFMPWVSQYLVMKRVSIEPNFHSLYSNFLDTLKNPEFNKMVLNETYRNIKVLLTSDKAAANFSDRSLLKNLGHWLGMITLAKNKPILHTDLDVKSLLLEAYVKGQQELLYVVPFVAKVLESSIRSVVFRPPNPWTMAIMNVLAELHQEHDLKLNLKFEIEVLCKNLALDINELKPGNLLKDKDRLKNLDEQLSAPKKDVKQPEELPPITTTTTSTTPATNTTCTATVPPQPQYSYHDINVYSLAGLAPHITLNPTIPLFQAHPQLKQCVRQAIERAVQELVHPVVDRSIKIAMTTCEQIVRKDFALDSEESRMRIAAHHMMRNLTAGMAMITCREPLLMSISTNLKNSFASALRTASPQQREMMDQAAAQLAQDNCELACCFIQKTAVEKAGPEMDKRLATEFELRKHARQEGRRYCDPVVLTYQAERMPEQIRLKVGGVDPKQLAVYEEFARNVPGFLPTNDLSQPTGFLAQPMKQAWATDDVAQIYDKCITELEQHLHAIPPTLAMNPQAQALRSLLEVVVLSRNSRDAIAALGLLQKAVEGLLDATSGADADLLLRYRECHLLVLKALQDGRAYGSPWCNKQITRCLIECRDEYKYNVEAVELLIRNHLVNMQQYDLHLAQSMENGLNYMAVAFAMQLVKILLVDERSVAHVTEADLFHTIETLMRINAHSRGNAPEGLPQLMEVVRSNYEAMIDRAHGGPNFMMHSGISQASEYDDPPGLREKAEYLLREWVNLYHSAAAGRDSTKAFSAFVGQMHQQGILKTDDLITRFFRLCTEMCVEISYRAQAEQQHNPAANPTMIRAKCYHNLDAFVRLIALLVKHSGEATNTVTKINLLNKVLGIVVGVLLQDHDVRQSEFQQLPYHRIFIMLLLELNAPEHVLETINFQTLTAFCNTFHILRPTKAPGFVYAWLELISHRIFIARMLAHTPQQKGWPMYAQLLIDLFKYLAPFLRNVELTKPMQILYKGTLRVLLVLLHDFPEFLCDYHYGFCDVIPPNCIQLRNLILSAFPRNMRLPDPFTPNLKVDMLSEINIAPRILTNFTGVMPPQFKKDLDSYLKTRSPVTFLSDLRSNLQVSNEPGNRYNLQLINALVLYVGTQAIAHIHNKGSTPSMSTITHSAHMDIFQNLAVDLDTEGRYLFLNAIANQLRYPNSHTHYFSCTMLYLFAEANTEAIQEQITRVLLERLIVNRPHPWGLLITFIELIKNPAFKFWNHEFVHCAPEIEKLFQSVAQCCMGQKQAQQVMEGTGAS
T3 sequence (P14618 whole entry): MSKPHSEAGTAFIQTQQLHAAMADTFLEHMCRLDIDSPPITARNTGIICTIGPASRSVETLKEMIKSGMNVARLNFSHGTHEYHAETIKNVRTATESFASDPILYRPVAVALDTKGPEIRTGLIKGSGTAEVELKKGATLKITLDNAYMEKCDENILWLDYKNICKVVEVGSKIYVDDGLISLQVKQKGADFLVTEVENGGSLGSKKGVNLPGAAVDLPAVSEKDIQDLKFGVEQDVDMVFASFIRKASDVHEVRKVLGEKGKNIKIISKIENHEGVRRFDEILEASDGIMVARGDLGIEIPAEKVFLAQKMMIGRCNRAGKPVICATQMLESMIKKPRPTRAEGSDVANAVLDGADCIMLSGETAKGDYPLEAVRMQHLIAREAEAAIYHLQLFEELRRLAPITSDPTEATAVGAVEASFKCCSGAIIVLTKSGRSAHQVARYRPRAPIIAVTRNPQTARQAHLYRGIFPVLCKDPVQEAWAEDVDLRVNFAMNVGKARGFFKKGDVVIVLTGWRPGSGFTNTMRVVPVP
T8 sequence (Q96DE0 whole entry): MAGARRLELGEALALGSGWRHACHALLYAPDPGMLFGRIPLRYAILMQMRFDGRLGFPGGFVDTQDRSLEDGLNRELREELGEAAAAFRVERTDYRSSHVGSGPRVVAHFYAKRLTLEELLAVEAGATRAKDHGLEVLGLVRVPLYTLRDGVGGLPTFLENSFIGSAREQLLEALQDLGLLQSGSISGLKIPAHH

Regarding `CCCCCCOc1cccc(Cc2cnc(N)nc2N)c1` [compound 2], the “fold changes relative to vehicle control” value in experiment [1] (protein CNOT1, HeLa) came out at 1.32; in experiment [2] (HeLa, protein LYPLA1) it was 1.1; in experiment [3] (setting [9]), 2.57 fold; in experiment [4] (HeLa, protein POLR2B) it was 1.42; in experiment [5] (protein ATP5O, HeLa), 0.98; in experiment [6] (captured protein HKDC1, HeLa) it was 1.1. Further, the “fold changes relative to vehicle control” value came out at 1.01 in experiment [7] (captured protein IPO4, HeLa) and 0.93 in experiment [8] (captured protein NUDT16, HeLa).
With `NCCOCCOCC(=O)Nc1nc2ncc(CNc3ccc(C(=O)NC(CCC(=O)O)C(=O)O)cc3)nc2c(=O)[nH]1` (centres unmarked) [compound 6], the “fold changes relative to vehicle control” value came to 1.17 in experiment [1] (HeLa, captured protein CNOT1); 0.98 in experiment [2] (HeLa, captured protein LYPLA1); 1.29 in experiment [3] (HeLa, protein PKM2); 1.07 in experiment [4] (protein POLR2B, HeLa); 0.97 in experiment [5] (HeLa, captured protein ATP5O); 1.06 in experiment [6] (HeLa, protein HKDC1). Besides, the “fold changes relative to vehicle control” value in experiment [7] (protein IPO4, HeLa) is 1.04; in experiment [8] (HeLa, captured protein NUDT16) it was 0.84.
Take `CCCCCCOc1ccc(Cc2cnc(N)nc2N)cc1` [compound 1]: the “fold changes relative to vehicle control” value in experiment [1] (protein CNOT1, HeLa) was 1.3; in experiment [2] (HeLa, protein LYPLA1) it was 0.92; in experiment [3] (setting [9]), 1.45 fold; in experiment [4] (HeLa, protein POLR2B) it was 0.94; in experiment [5] (protein ATP5O, HeLa), 0.98; in experiment [6] (captured protein HKDC1, HeLa) it was 1. Moreover, the “fold changes relative to vehicle control” value in experiment [7] (captured protein IPO4, HeLa) was 0.83; in experiment [8] (captured protein NUDT16, HeLa), 0.62.
Turning to `Nc1nc2c(c(=O)[nH]1)N(C=O)C(CNc1ccc(C(=O)N[C@@H](CCC(=O)O)C(=O)O)cc1)CN2` (some centres unmarked) [LEU, leucovorin], the “fold changes relative to vehicle control” value in experiment [1] (HeLa, captured protein CNOT1) came out at 0.93; in experiment [2] (HeLa, captured protein LYPLA1) it was 0.89; in experiment [3] (HeLa, protein PKM2), 1.03; in experiment [4] (protein POLR2B, HeLa), 0.8; in experiment [5] (HeLa, captured protein ATP5O), 1.01; in experiment [6] (HeLa, protein HKDC1) it was 0.89. For the same molecule, the “fold changes relative to vehicle control” value in experiment [7] (protein IPO4, HeLa) was determined as 0.89; in experiment [8] (HeLa, captured protein NUDT16) it was 0.93.
As to `NCCCNc1ccc(C(=O)NC(CCC(=O)O)C(=O)O)cc1` (centres unmarked) [compound 7], the “fold changes relative to vehicle control” value in experiment [1] (HeLa, captured protein CNOT1) came to 1.16; in experiment [2] (HeLa, captured protein LYPLA1), 0.92; in experiment [3] (HeLa, protein PKM2) it was 0.94; in experiment [4] (protein POLR2B, HeLa) it was 0.91; in experiment [5] (HeLa, captured protein ATP5O), 1.02; in experiment [6] (HeLa, protein HKDC1), 1.09. Further, the “fold changes relative to vehicle control” value worked out at 0.94 in experiment [7] (protein IPO4, HeLa) and 1.02 in experiment [8] (HeLa, captured protein NUDT16).
Consider `Nc1nc2[nH]cc(CCc3ccc(C(=O)N[C@@H](CCC(=O)O)C(=O)O)cc3)c2c(=O)[nH]1` [PTX, pemetrexed], for which the “fold changes relative to vehicle control” value in experiment [1] amounted to 1; in experiment [2], 0.93; in experiment [3] it was 1.09; in experiment [4], 0.89; in experiment [5], 1.01; in experiment [6], 0.89. For the same molecule, the “fold changes relative to vehicle control” value in experiment [7] was 0.88; in experiment [8] it was 0.92.
Consider `Nc1nc2cccc(-c3ccccc3)c2n1Cc1ccc(Cl)c(Cl)c1` [compound 3], for which the “fold changes relative to vehicle control” value came out at 1.37 in experiment [1] (protein CNOT1, HeLa); 0.71 in experiment [2] (HeLa, protein LYPLA1); 0.99 fold in experiment [3] (setting [9]); 0.98 in experiment [4] (HeLa, protein POLR2B); 0.9 in experiment [5] (protein ATP5O, HeLa); 1.05 in experiment [6] (captured protein HKDC1, HeLa). The “fold changes relative to vehicle control” value in experiment [7] (captured protein IPO4, HeLa) is 0.97; in experiment [8] (captured protein NUDT16, HeLa) it was 1.02.
